In patent publication US10358416B2, “Substituted pyrrolidines as G-protein coupled receptor 43 agonists” (Ogeda SA, priority 2009, dated 2019):

System: ob/ob mice
Test: Oral glucose tolerance test (OGTT) in ob/ob mice
Assay type: in vivo
Details: bi-daily 50 mg/kg during 28 days, AUC from -15 to 120 min
Procedure: Ob/ob or obese mice are leptin-deficient mice that eat excessively and become profoundly obese, hyperinsulinemic and hyperglycemic. It is an animal model of type II diabetes. Such model can be used for oral glucose tolerance tests (OGTTs). A total of sixteen (16) male ob/ob mice (6 weeks of age) were obtained from Harlan. Upon arrival to the animal unit, mice were housed 4 per cage in rodent cages mounted with feeders containing regular chow. The mice were put in a 12/12h light-dark cycle (light from 0600-1800 h) with controlled temperature conditions (22-24° C.). Fed blood glucose and body-weight was measured on day −2 in the morning between 08:00 AM and 09:00 AM. Animals were randomized into 2 groups according to fed glucose levels (on day −2). […]
Day 1 is the first day of dosing. […] At −15 min, blood glucose was measured (using a glucose analyzer) and animals were dosed with compounds of the invention or vehicle. At time point 0, blood glucose was measured again and glucose was administered by oral gavage (1 g/kg glucose). The blood glucose was then measured at time points 15, 30, 45, 60 and 120 minutes. […] The percentages of AUC inhibition induced by compounds of the invention were calculated as follows: % of AUC inhibition: [1−(AUC compound/AUC vehicle)]*100.

## COc1ccccc1-c1ccc(C(=O)N2[C@@H](c3ccccc3Cl)CC[C@H]2C(=O)O)cc1 [Compound 1, (2S,5R)-5-(2-chlorophenyl)-1-(2′-methoxy-[1,1′-biphenyl]-4-carbonyl)pyrrolidine-2-carboxylic acid]
  % of AUC inhibition (blood glucose AUC, OGTT): 40%
